In this experiment the test system is L1210 leukemia ip in BDF1 mice, survival T/C. In words: NCI In Vivo Anticancer Drug Screen. Data for tumor model L1210 Leukemia (intraperitoneal) in B6D2F1 (BDF1) mice. Conditions: higher = longer survival. The essentials: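 Read-out is survival time, reported as the treated-group measurement over the vehicle-control measurement.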
Setting [1] is: endpoint: mean survival time, dose: 100.0 mg/kg/injection, schedule: Q04DX003 (ip), vehicle: Klucel (hydroxypropylcellulose) (HPC).
The mark [2] stands for this setting: endpoint: mean survival time, dose: 200.0 mg/kg/injection, schedule: Q04DX003 (ip), vehicle: Klucel (hydroxypropylcellulose) (HPC).
Where [3] appears, read: endpoint: mean survival time, dose: 100.0 mg/kg/injection, schedule: Q04DX002 (ip), vehicle: saline with Tween-80.
Where [4] appears, read: endpoint: mean survival time, dose: 200.0 mg/kg/injection, schedule: Q04DX002 (ip), vehicle: saline with Tween-80.
Where [5] appears, read: endpoint: mean survival time, dose: 400.0 mg/kg/injection, schedule: Q04DX002 (ip), vehicle: saline with Tween-80.
Where [6] appears, read: endpoint: mean survival time, dose: 100.0 mg/kg/injection, schedule: Q01DX001 (ip), vehicle: saline.
[7] abbreviates: endpoint: mean survival time, dose: 200.0 mg/kg/injection, schedule: Q01DX001 (ip), vehicle: saline.
The mark [8] stands for this setting: endpoint: mean survival time, dose: 400.0 mg/kg/injection, schedule: Q01DX001 (ip), vehicle: saline.
The mark [9] stands for this setting: endpoint: mean survival time, dose: 50.0 mg/kg/injection, schedule: Q01DX009 (ip), vehicle: Klucel (hydroxypropylcellulose) (HPC).
[10] abbreviates: endpoint: mean survival time, dose: 100.0 mg/kg/injection, schedule: Q01DX009 (ip), vehicle: Klucel (hydroxypropylcellulose) (HPC).
[11] abbreviates: endpoint: mean survival time, dose: 200.0 mg/kg/injection, schedule: Q01DX009 (ip), vehicle: Klucel (hydroxypropylcellulose) (HPC).
Setting [12] is: endpoint: mean survival time, dose: 100.0 mg/kg/injection, schedule: Q01DX009 (ip), vehicle: saline with Tween-80.
Where [13] appears, read: endpoint: mean survival time, dose: 200.0 mg/kg/injection, schedule: Q01DX009 (ip), vehicle: saline with Tween-80.
Setting [14] is: endpoint: mean survival time, dose: 100.0 mg/kg/injection, schedule: Q04DX003 (ip), vehicle: saline with Tween-80.
Where [15] appears, read: endpoint: mean survival time, dose: 200.0 mg/kg/injection, schedule: Q04DX003 (ip), vehicle: saline with Tween-80.
Where [16] appears, read: endpoint: mean survival time, dose: 100.0 mg/kg/injection, schedule: Q04DX003 (ip), vehicle: saline.
[17] abbreviates: endpoint: mean survival time, dose: 50.0 mg/kg/injection, schedule: Q04DX003 (ip), vehicle: saline.

For 22 molecules, T/C results are on record in PubChem BioAssay AID248 (DTP/NCI, 2004).

Each structure is given as a SMILES string. Values joined by “and” are separate entries in the source; they are usually repeats but may differ in a detail not shown here. Equal values may be shown once. Inconclusive results and toxic doses are left out.

On to `c1ccc(/C2=C(\c3ccccc3)CSSSSC2)cc1`, for which the T/C by setting is: (endpoint: mean survival time, dose: 50.0 mg/kg/injection, schedule: Q04DX003 (ip), vehicle: Klucel (hydroxypropylcellulose) (HPC)) 105 % of control; under setting [1], 98 % of control; under setting [2], 98 % of control.
Turning to `[N-]=C=C(C(=O)c1ccccc1)[n+]1cc(Br)cc2ccccc21`, the T/C by setting is: under setting [3], 94 % of control; under setting [4], 94 % of control; under setting [5], 94 % of control.
For `CC(C)(C)c1cc(OCC2CO2)c(C(C)(C)C)cc1OCC1CO1` (configuration not stated), the T/C by setting is: under setting [6], 101 % of control; under setting [7], 101 % of control; under setting [8], 92 % of control.
Regarding `CCOC(CNC(=O)c1cccc([N+](=O)[O-])c1)OCC`, the T/C by setting is: under setting [9], 87 % of control; under setting [10], 98 % of control; under setting [11], 102 % of control.
Regarding `CCOC(=O)c1[nH]c(C)nc1/N=N/N(C)C`, under “endpoint: median survival time, dose: 25.0 mg/kg/injection, schedule: Q01DX009 (ip), vehicle: Klucel (hydroxypropylcellulose) (HPC)”, the T/C was 116 % of control.
Regarding `CCOc1ccc2ccsc2c1`, the T/C reads like this: under setting [6], 98 % of control; under setting [7], 98 % of control; under setting [8], 96 % of control.
Take `C1CC2CCC(N3CCOCC3)C(C1)O2` (configuration not stated): the T/C (endpoint: mean survival time, dose: 50.0 mg/kg/injection, schedule: Q01DX009 (ip), vehicle: saline with Tween-80) was 102 % of control; the T/C under setting [12] was 102 % of control; the T/C under setting [13] is 102 % of control.
Consider `CSc1nnnn1-c1ccccc1`, for which the T/C by setting is: (endpoint: mean survival time, dose: 100.0 mg/kg/injection, schedule: Q04DX003 (ip), vehicle: acetone) 100 % of control; under setting [14], 102 % of control; under setting [15], 100 % of control; (endpoint: mean survival time, dose: 400.0 mg/kg/injection, schedule: Q04DX003 (ip), vehicle: acetone) 100 % of control.
As for `COc1ccc(C(=O)C(Br)(Cc2ccccc2)OC)cc1` (configuration not stated), the T/C (endpoint: mean survival time, dose: 66.0 mg/kg/injection, schedule: Q04DX003 (ip), vehicle: saline) was 93 % of control; the T/C under setting [16] is 94 % of control; the T/C (endpoint: mean survival time, dose: 150.0 mg/kg/injection, schedule: Q04DX003 (ip), vehicle: saline) was 94 % of control.
For the molecule `O=c1ccc(=O)c2c(=O)c3ccccc3c(=O)c1=2`, the T/C is, setting by setting: under setting [9], 97 % of control; under setting [10], 95 % of control; under setting [1], 101 % of control; under setting [2], 103 % of control.
In the case of `CCCCCCCCCCS(=O)(=O)CCS(=O)(=O)CCCCCCCCCC`, the T/C is 97 % of control under setting [1]; 95 % of control under setting [2]; 97 % of control (endpoint: mean survival time, dose: 400.0 mg/kg/injection, schedule: Q04DX003 (ip), vehicle: Klucel (hydroxypropylcellulose) (HPC)).
`CCOC(=O)c1c(C)c(-c2ccccc2F)nc2ccccc12`: the T/C under setting [6] was 103 % of control and the T/C under setting [7] was 94 % of control.
Turning to `COC(C(=O)O)c1ccc(Br)cc1` (configuration not stated), the T/C (endpoint: mean survival time, dose: 75.0 mg/kg/injection, schedule: Q01DX001 (ip), vehicle: acetone) is 95 % of control and the T/C (endpoint: mean survival time, dose: 150.0 mg/kg/injection, schedule: Q01DX001 (ip), vehicle: acetone) was 94 % of control.
For `O=C1OC(c2ccccc2)=N/C1=C1\OC(=O)c2ccccc21`, the T/C under setting [9] is 92 % of control; the T/C under setting [10] was 86 % of control; the T/C under setting [11] is 92 % of control; the T/C (endpoint: mean survival time, dose: 400.0 mg/kg/injection, schedule: Q01DX009 (ip), vehicle: Klucel (hydroxypropylcellulose) (HPC)) was 89 % of control.
On to `COc1c(Cl)cc([N+](=O)[O-])c(OC)c1[N+](=O)[O-]`, for which the T/C is 90 % of control (endpoint: mean survival time, dose: 50.0 mg/kg/injection, schedule: Q01DX009 (ip), vehicle: acetone); 98 % of control under setting [17]; 94 % of control (endpoint: mean survival time, dose: 100.0 mg/kg/injection, schedule: Q01DX001 (ip), vehicle: acetone); 90 % of control (endpoint: mean survival time, dose: 100.0 mg/kg/injection, schedule: Q01DX009 (ip), vehicle: acetone); 93 % of control under setting [16]; 98 % of control (endpoint: mean survival time, dose: 200.0 mg/kg/injection, schedule: Q01DX001 (ip), vehicle: acetone).
In the case of `O=C(CCN1CC1)OCCCCOC(=O)CCN1CC1`, the T/C by setting is: (endpoint: mean survival time, dose: 2.5 mg/kg/injection, schedule: Q01DX009 (ip), vehicle: saline) 113 % of control; (endpoint: mean survival time, dose: 5.0 mg/kg/injection, schedule: Q01DX009 (ip), vehicle: saline) 110 % of control; (endpoint: mean survival time, dose: 6.6 mg/kg/injection, schedule: Q01DX009 (ip), vehicle: saline) 94 % of control and 102 % of control; (endpoint: mean survival time, dose: 10.0 mg/kg/injection, schedule: Q01DX009 (ip), vehicle: saline) 102 % of control; (endpoint: mean survival time, dose: 15.0 mg/kg/injection, schedule: Q01DX009 (ip), vehicle: saline) 100 % of control and 107 % of control; (endpoint: mean survival time, dose: 20.0 mg/kg/injection, schedule: Q01DX009 (ip), vehicle: saline) 104 % of control. Further, the T/C runs as follows: (endpoint: mean survival time, dose: 20.0 mg/kg/injection, schedule: Q04DX003 (ip), vehicle: saline) 115 % of control; (endpoint: mean survival time, dose: 40.0 mg/kg/injection, schedule: Q04DX003 (ip), vehicle: saline) 104 % of control; (endpoint: mean survival time, dose: 80.0 mg/kg/injection, schedule: Q04DX003 (ip), vehicle: saline) 91 % of control.
In the case of `CC(=O)OC1CCC2(C)C(CCC3C4CCC(=O)OC4(C)CC(=O)C32)C1` (configuration not stated), the T/C is, setting by setting: (endpoint: mean survival time, dose: 100.0 mg/kg/injection, schedule: Q04DX003 (sc), vehicle: steriod suspending solution) 104 % of control; (endpoint: mean survival time, dose: 200.0 mg/kg/injection, schedule: Q04DX003 (sc), vehicle: steriod suspending solution) 100 % of control; (endpoint: mean survival time, dose: 400.0 mg/kg/injection, schedule: Q04DX003 (sc), vehicle: steriod suspending solution) 97 % of control.
In the case of `CCCCCCCCCCCCC/C=C/CC(CC(=O)O)C(=O)Nc1ccc(-n2c(=O)cc(C)n2C)cc1` (configuration not stated), the T/C reads like this: under setting [14], 92 % of control; under setting [15], 94 % of control; (endpoint: mean survival time, dose: 400.0 mg/kg/injection, schedule: Q04DX003 (ip), vehicle: saline with Tween-80) 92 % of control.
Consider `O=C1CSc2ccccc2N1CCN1C(=O)CSc2ccccc21`, for which the T/C is 93 % of control (endpoint: mean survival time, dose: 50.0 mg/kg/injection, schedule: Q04DX002 (ip), vehicle: saline with Tween-80); 90 % of control under setting [3]; 101 % of control under setting [4]; 86 % of control under setting [5].
As to `CN=C(N)c1ccc(NC(=O)Nc2ccc(NC(=O)Nc3ccc(C(N)=NC)cc3)cc2)cc1`, the T/C is, setting by setting: (endpoint: mean survival time, dose: 50.0 mg/kg/injection, schedule: Q01DX Z (oral), vehicle: saline) 95 % of control; (endpoint: mean survival time, dose: 60.0 mg/kg/injection, schedule: Q01DX Z (ip), vehicle: saline) 157 % of control; (endpoint: mean survival time, dose: 100.0 mg/kg/injection, schedule: Q01DX Z (oral), vehicle: saline) 89 % of control; (endpoint: mean survival time, dose: 120.0 mg/kg/injection, schedule: Q01DX Z (ip), vehicle: saline) 205 % of control; (endpoint: mean survival time, dose: 200.0 mg/kg/injection, schedule: Q01DX Z (oral), vehicle: saline) 95 % of control; (endpoint: mean survival time, dose: 240.0 mg/kg/injection, schedule: Q01DX Z (ip), vehicle: saline) 108 % of control. Also, the T/C reads like this: (endpoint: mean survival time, dose: 400.0 mg/kg/injection, schedule: Q01DX Z (oral), vehicle: saline) 96 % of control; (endpoint: mean survival time, dose: 480.0 mg/kg/injection, schedule: Q01DX Z (ip), vehicle: saline) 90 % of control.
As to `CC(C)CC1(C)NC(=O)NC1=O` (configuration not stated), the T/C under setting [12] was 97 % of control; the T/C under setting [13] is 102 % of control; the T/C (endpoint: mean survival time, dose: 400.0 mg/kg/injection, schedule: Q01DX009 (ip), vehicle: saline with Tween-80) is 97 % of control.
On to `C1=C(c2ccccc2)[P+](c2ccccc2)(c2ccccc2)C=C(c2ccccc2)[P+]1(c1ccccc1)c1ccccc1`, for which the T/C (endpoint: mean survival time, dose: 12.5 mg/kg/injection, schedule: Q01DX009 (ip), vehicle: saline) is 108 % of control; the T/C (endpoint: mean survival time, dose: 12.5 mg/kg/injection, schedule: Q04DX003 (ip), vehicle: saline) is 106 % of control; the T/C (endpoint: mean survival time, dose: 25.0 mg/kg/injection, schedule: Q01DX009 (ip), vehicle: saline) was 109 % of control; the T/C (endpoint: mean survival time, dose: 25.0 mg/kg/injection, schedule: Q04DX003 (ip), vehicle: saline) is 109 % of control; the T/C under setting [17] was 102 % of control.
